This test concerns the target T1, Bile acid receptor (Homo sapiens, UniProt Q96RI1).
T1 sequence (Q96RI1 whole entry): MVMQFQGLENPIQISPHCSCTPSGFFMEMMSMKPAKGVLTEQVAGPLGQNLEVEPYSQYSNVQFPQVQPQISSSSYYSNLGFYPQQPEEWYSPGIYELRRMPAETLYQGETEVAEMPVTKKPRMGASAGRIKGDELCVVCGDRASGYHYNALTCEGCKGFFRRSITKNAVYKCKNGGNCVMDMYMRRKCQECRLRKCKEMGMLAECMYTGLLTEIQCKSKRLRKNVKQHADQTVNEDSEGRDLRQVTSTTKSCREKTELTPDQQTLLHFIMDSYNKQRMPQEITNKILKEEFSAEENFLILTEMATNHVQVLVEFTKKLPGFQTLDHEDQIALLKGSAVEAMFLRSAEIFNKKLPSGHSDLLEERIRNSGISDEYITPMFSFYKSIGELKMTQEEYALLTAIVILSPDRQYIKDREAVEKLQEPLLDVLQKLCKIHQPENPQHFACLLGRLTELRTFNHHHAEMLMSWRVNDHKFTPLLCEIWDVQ
Put plainly: Cotransfection Assay. The conditions noted are these: pH 7.2; 37 °C.

On to `O=C(O)c1cccc(/C=C/c2ccc(OCc3c(-c4c(Cl)cccc4Cl)noc3-c3ccc4ccccc4c3)cc2Cl)c1` [3-[(E)-2-(2-chloro-4-{[3-(2,6-dichlorophenyl)-5-(naphthalen-2-yl)-1,2-oxazol-4-yl]methoxy}phenyl)ethenyl]benzoic acid], for which a half-maximal response (EC50) required 22.2 µM.

On to `O=C(O)c1cccc(NC(=O)c2ccc(OCc3c(-c4c(Cl)cccc4Cl)noc3-c3ccc(-c4ccccc4)cc3)cc2Cl)c1` [3-[(2-chloro-4-{[3-(2,6-dichlorophenyl)-5-(4-phenylphenyl)-1,2-oxazol-4-yl]methoxy}benzene)amido]benzoic acid], for which the concentration for a half-maximal effect (EC50) (commonly the concentration needed to bring the measured effect to its halfway point) is 3.7 µM.

Turning to `O=C(O)c1cccc(/C=C/c2ccc(OCc3c(-c4c(Cl)cccc4Cl)noc3-c3ccccc3)cc2Cl)c1` [3-[(E)-2-(2-chloro-4-{[3-(2,6-dichlorophenyl)-5-phenyl-1,2-oxazol-4-yl]methoxy}phenyl)ethenyl]benzoic acid], the concentration giving a half-maximal response (EC50) stood at 15.8 µM.

As to `O=C(O)c1cccc(/C=C/c2ccc(OCc3c(-c4c(Cl)cccc4Cl)noc3-c3ccc(-c4ccccc4)cc3)cc2Cl)c1` [3-[(E)-2-(2-chloro-4-{[3-(2,6-dichlorophenyl)-5-(4-phenylphenyl)-1,2-oxazol-4-yl]methoxy}phenyl)ethenyl]benzoic acid], the EC50 stood at 33.9 µM.

The molecule `O=C(O)c1cccc(NC(=O)c2ccc(OCc3c(-c4c(Cl)cccc4Cl)noc3-c3ccc4ccccc4c3)cc2Cl)c1` [3-[(2-chloro-4-{[3-(2,6-dichlorophenyl)-5-(naphthalen-2-yl)-1,2-oxazol-4-yl]methoxy}benzene)amido]benzoic acid] returned an EC50 of 4 µM.

For the origin of these results see BindingDB's records for doi:10.1016/j.bmc.2007.01.046 (University of Tokyo, 2007).
